Consider 32 compounds from US20240352021A1 (DANA-FARBER CANCER INSTITUTE, INC., priority 2021, published 2024).

Several values for one entry are separate records, joined by “and”; a condition that tells them apart may be missing. Equal entries are not always repeated. Where two headings read alike, the source gives them in different places. Some results are limits rather than exact numbers.

The target of assay [1] is EGFR mutant L858R Ba/F3 cells (Homo sapiens, UniProt P00533, L858R, cells depend on it). Briefly: Ba/F3 cell proliferation (Cell Titer Glo), EGFR L858R. The class given is cell-based, murine. Conditions: 72 hours. The text has this: (§1) The EGFR mutant L858R Ba/F3 cells have been previously described (Zhou, W., et al. Nature 462, 2009, 1070-1074). The EGFR C797S and C775S mutations were introduced via site directed mutagenesis using the Quick Change Site-Directed Mutagenesis kit into a vector containing EGFR L858R mutation (Stratagene; La Jolla, CA) according to the manufacturer's instructions. All constructs were confirmed by DNA sequencing. The constructs were then shuttled into the retroviral vector JP1540 by either using the Cre-recombination system (Agilent Technologies, Santa Clara, CA) or the In-fusion HD Cloning kit (Takara Bio USA, Inc.; Mountain view, CA). Ba/F3 cells were then infected with retrovirus per standard protocols, as described previously (Zhou, et al, Nature 2009). Stable clones were obtained by selection in puromycin (2 μg/ml). All BaF/3 mutant cells were maintained in RPMI 1640 (Cellgro; Mediatech Inc., Herndon, CA) supplemented with 10% FBS, 100 units/mL penicillin, 100 units/mL streptomycin.
Chain of EGFR mutant L858R Ba/F3 cells (P00533 whole entry L858R, the tested form may be a part): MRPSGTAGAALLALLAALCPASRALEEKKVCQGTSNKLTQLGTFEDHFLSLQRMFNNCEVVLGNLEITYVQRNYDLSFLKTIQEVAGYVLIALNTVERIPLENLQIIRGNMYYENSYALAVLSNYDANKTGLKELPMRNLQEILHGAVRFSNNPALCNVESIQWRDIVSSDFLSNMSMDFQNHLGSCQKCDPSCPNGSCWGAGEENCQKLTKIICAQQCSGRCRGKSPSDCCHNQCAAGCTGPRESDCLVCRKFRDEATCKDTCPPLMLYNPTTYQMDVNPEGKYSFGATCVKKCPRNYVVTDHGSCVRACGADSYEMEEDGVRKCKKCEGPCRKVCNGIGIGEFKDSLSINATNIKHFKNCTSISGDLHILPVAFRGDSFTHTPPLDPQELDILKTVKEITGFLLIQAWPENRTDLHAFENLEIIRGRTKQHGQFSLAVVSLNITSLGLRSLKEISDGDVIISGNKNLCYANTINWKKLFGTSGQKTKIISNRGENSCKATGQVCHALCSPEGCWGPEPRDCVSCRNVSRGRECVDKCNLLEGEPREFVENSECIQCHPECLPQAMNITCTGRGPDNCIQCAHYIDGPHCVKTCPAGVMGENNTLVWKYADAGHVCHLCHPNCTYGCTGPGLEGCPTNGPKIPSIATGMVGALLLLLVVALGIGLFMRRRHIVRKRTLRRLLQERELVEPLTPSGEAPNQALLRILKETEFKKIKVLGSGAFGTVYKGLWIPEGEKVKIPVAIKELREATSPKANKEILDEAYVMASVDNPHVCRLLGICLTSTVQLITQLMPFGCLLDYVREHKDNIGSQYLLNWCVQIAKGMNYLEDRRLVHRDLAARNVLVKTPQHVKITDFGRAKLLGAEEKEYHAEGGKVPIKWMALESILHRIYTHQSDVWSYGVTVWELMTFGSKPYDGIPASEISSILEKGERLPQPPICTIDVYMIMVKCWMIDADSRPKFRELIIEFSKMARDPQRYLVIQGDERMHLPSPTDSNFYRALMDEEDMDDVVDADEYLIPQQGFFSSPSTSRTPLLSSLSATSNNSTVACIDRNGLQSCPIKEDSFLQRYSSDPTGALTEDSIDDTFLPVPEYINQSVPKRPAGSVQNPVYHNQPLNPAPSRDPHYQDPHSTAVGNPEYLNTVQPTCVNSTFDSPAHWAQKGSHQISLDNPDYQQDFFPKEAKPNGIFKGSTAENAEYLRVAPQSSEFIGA
(§2) Growth and inhibition of growth was assessed by the Cell Titer Glo assay (Promega, Madison, WI) and was performed according to the manufacturer's instructions. The Cell Titer Glo assay is a luminescence-based method used to determine the number of viable cells based on quantitation of the ATP present, which is directly proportional to the amount of metabolically active cells present. Ba/F3 cells of different EGFR genotypes were exposed to compounds for 72 hours and the number of cells used per experiment was determined empirically as has been previously established (Zhou, et al., Nature 2009). All experimental points were set up in triplicates in 384-well plates. […] The curves were fitted using a non-linear regression model with a sigmoidal dose response.
(§3) Ba/F3 cells assay data are provided below in Table 5 and Table 6. For inhibitory activity against EGFR mutants, the following designations are used: <0.1 μM=A, 0.1 μM˜0.5 μM=B, 0.5 μM˜2.5 μM=C, ≥2.5 μM=D

Assay [2] concerns the target EGFR L858R/C797S Ba/F3 cells (Homo sapiens, UniProt P00533, C797S/L858R, cells depend on it). In words: Ba/F3 cell proliferation (Cell Titer Glo), EGFR L858R/C797S. As to conditions: 72 hours. Type of assay: cell-based, murine.
Source text: as §1, §2, §3

Chain of EGFR L858R/C797S Ba/F3 cells (P00533 whole entry C797S/L858R): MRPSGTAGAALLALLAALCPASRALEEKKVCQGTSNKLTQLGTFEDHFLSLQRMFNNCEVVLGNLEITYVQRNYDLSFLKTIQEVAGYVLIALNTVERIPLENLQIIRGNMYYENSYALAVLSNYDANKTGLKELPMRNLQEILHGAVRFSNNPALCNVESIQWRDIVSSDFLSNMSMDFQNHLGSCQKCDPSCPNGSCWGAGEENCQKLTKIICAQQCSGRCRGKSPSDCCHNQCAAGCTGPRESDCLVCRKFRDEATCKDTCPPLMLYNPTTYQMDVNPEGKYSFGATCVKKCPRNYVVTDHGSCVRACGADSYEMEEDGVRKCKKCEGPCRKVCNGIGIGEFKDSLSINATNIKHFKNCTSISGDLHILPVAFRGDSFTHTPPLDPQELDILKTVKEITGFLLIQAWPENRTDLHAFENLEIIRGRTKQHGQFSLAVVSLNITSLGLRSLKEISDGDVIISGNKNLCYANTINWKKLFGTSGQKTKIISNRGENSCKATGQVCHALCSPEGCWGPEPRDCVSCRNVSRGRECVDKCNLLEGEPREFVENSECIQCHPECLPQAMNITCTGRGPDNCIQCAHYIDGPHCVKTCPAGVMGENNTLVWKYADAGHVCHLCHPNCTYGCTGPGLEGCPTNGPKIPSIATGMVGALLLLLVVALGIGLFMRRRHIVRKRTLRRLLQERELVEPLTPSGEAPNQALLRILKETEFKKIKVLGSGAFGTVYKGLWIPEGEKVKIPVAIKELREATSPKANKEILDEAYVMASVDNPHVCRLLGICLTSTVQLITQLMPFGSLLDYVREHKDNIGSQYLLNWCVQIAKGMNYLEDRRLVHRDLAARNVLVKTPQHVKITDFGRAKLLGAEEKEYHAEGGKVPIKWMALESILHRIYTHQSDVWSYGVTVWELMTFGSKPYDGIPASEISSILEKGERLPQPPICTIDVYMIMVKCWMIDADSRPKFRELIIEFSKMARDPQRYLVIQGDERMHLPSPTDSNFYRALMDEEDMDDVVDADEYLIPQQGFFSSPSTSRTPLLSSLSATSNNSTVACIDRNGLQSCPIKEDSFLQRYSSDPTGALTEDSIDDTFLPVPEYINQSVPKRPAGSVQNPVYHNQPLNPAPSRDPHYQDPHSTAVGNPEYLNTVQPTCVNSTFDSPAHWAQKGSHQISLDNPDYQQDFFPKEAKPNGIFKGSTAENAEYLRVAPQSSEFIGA

Consider `C=CC(=O)N1CC2CC1CC2N1Cc2cnc(Nc3ccc(N4CCN(C)CC4)cc3)nc2N(C)C1=O` (stereo not drawn) [Compound 059, 1-methyl-7-[4-(4-methylpiperazin-1-yl)anilino]-S-(2-prop-2-enoyl-2-azabicyclo[2.2.1]heptan-5-yl)-4H-pyrimido[4,5-d]pyrimidin-2-one], for which the GI50 was ≥ 2500 nM in assay [1] (Table 6, read-out: L858R BaF3) and ≥ 2500 nM in assay [2] (Table 6).

`C=CC(=O)N1CCC(N2Cc3cnc(Nc4ccc(C5CCN(C)CC5)cc4)nc3N(C)C2=O)c2ccccc21` (stereo not shown) [Compound 066]: the GI50 is < 100 nM in assay [1] (Table 6, read-out: L858R BaF3) and < 100 nM in assay [2] (Table 6).

Turning to `C=CC(=O)N1CCC(N2Cc3cnc(Nc4ccc(N5CCN(C)CC5)cc4)nc3N(C3CCOC3)C2=O)c2ccccc21` (stereo not shown) [Compound 058], the GI50 in assay [1] (Table 6, read-out: L858R BaF3) is < 100 nM; in assay [2] (Table 6), < 100 nM.

Regarding `C/C=C/C(=O)N1CC[C@H](N2Cc3cnc(Nc4ccc(N5CCN(C)CC5)cc4)nc3N(C)C2=O)c2ccccc21` [Compound 091], the GI50 in assay [1] (Table 6, read-out: L858R BaF3) lay in the range of 100 to 500 nM; in assay [2] (Table 6), 100 to 500 nM.

On to `C=CC(=O)Nc1ccccc1CN1Cc2cnc(Nc3ccc(N4CCN(C)CC4)cc3)nc2N(C)C1=O` [Compound 001, N-(2-((1-methyl-7-((4-(4-methylpiperazin-1-yl)phenyl)amino)-2-oxo-1,4-dihydropyrimido[4,5-d]pyrimidin-S(2H)-yl)methyl)phenyl)acrylamide], for which the GI50 fell in the range of 100 to 500 nM in assay [1] (Table 5, read-out: L858R BaF3) and 100 to 500 nM in assay [2] (Table 5).

For `C=CC(=O)N1CCC(N2Cc3cnc(Nc4ccc(N5CCN(C)CC5)cc4)nc3N(C)C2=O)C2(CCC2)C1` (stereo not shown) [Compound 094], the GI50 is ≥ 2500 nM in assay [1] (Table 6, read-out: L858R BaF3) and ≥ 2500 nM in assay [2] (Table 6).

Regarding `C=CC(=O)N1CCC(N2Cc3cnc(Nc4ccc(F)c(C#N)c4)nc3N(C)C2=O)c2ccccc21` (stereo not shown) [Compound 082], the GI50 in assay [1] (Table 6, read-out: L858R BaF3) was < 100 nM; in assay [2] (Table 6), 100 to 500 nM and < 100 nM.

With `C/C=C(\F)C(=O)N1CC[C@H](N2Cc3cnc(Nc4ccc(N5CCN(C)CC5)cc4)nc3N(C)C2=O)c2ccccc21` [Compound 097], the GI50 is 100 to 500 nM in assay [1] (Table 6, read-out: L858R BaF3) and 500 to 2500 nM in assay [2] (Table 6).

Turning to `C=CC(=O)N1c2ccccc2C(N2Cc3cnc(Nc4ccc(N5CCN(C)CC5)cc4)nc3N(C)C2=O)CC1(C)C` (stereo not shown) [Compound 107, 3-(1-acryloyl-2,2-dimethyl-1,2,3,4-tetrahydroquinolin-4-yl)-1-methyl-7-((4-(4-methylpiperazin-1-yl)phenyl)amino)-3,4-dihydropyrimido[4,5-d]pyrimidin-2(1H)-one], the GI50 in assay [1] (Table 6, read-out: L858R BaF3) was ≥ 2500 nM; in assay [2] (Table 6), ≥ 2500 nM.

As to `C=CC(=O)N1CCC(N2Cc3cnc(Nc4ccc(N5CCN(C)CC5)cn4)nc3N(C)C2=O)c2ccccc21` (stereo not shown) [Compound 069], the GI50 was < 100 nM in assay [1] (Table 6, read-out: L858R BaF3) and < 100 nM in assay [2] (Table 6).

Consider `C=C(F)C(=O)N1CC[C@H](N2Cc3cnc(Nc4cnn(CCO)c4)nc3N(C)C2=O)c2ccccc21` [Compound 093], for which the GI50 in assay [1] (Table 6, read-out: L858R BaF3) is < 100 nM; in assay [2] (Table 6), < 100 nM.

As to `C=C(F)C(=O)N1CC[C@H](N2Cc3cnc(Nc4cnn(CCO)c4)nc3N(C3CCOC3)C2=O)c2ccccc21` (stereo partly drawn) [Compound 102, 3-((S)-1-(2-fluoroacryloyl)-1,2,3,4-tetrahydroquinolin-4-yl)-7-((1-(2-hydroxyethyl)-1 H-pyrazol-4-yl)amino)-1-(tetrahydrofuran-S-yl)-3,4-dihydropyrimido[4,5-d]pyrimidin-2(1H)-one], the GI50 is < 100 nM in assay [1] (Table 6, read-out: L858R BaF3) and < 100 nM in assay [2] (Table 6).

For `C=CC(=O)N1CCC(N2Cc3cnc(Nc4ccc(N5CCN(C)CC5)c(Cl)c4)nc3N(C)C2=O)c2ccccc21` (stereo not shown) [Compound 079], the GI50 in assay [1] (Table 6, read-out: L858R BaF3) is < 100 nM; in assay [2] (Table 6), < 100 nM.

As for `C=CC(=O)N1CC(N2Cc3cnc(Nc4ccc(N5CCN(C)CC5)cc4)nc3N(C)C2=O)c2ccccc21` (stereo not drawn) [Compound 047, 1-methyl-7-[4-(4-methylpiperazin-1-yl)anilino]-S-(1-prop-2-enoylindolin-3-yl)-4H-pyrimido[4,5-d]pyrimidin-2-one], the GI50 is 100 to 500 nM in assay [1] (Table 6, read-out: L858R BaF3) and 100 to 500 nM in assay [2] (Table 6).

Regarding `C=CC(=O)N1CCC(N2Cc3nnc(Nc4ccc(N5CCN(C)CC5)cn4)cc3N(C)C2=O)c2ccccc21` (stereo not shown) [Compound 105], the GI50 was ≥ 2500 nM in assay [1] (Table 6, read-out: L858R BaF3) and ≥ 2500 nM in assay [2] (Table 6).

Regarding `C=CC(=O)N1CC2(CC(N3Cc4cnc(Nc5ccc(N6CCN(C)CC6)cc5)nc4N(C)C3=O)C2)C1` [Compound 053], the GI50 in assay [1] (Table 6, read-out: L858R BaF3) is ≥ 2500 nM; in assay [2] (Table 6), ≥ 2500 nM.

Consider `C=CC(=O)N1CCC(C)(N2Cc3cnc(Nc4cnn(CCO)c4)nc3N(C)C2=O)c2ccccc21` (stereo not drawn) [Compound 112, 7-[[1-(2-hydroxyethyl)pyrazol-4-yl]amino]-1-methyl-S-(4-methyl-1-prop-2-enoyl-2,3-dihydroquinolin-4-yl)-4H-pyrimido[4,5-d]pyrimidin-2-one], for which the GI50 in assay [1] (Table 6, read-out: L858R BaF3) is ≥ 2500 nM; in assay [2] (Table 6) it was ≥ 2500 nM.

In the case of `C=CC(=O)N1CCC(N2Cc3cnc(Nc4ccc(S(=O)(=O)NCCO)cc4)nc3N(C)C2=O)c2ccccc21` (stereo not shown) [Compound 084], the GI50 in assay [1] (Table 6, read-out: L858R BaF3) is ≥ 2500 nM; in assay [2] (Table 6) it was ≥ 2500 nM.

Take `CN1C(=O)N([C@H]2CCN(C#N)c3ccccc32)Cc2cnc(Nc3cnn(CCO)c3)nc21` [Compound 103]: the GI50 in assay [1] (Table 6, read-out: L858R BaF3) was ≥ 2500 nM; in assay [2] (Table 6), ≥ 2500 nM.

With `[2H]C1(N2Cc3cnc(Nc4cnn(CCO)c4)nc3N(C3CC3)C2=O)CCN(C(=O)C(=C)F)c2ccccc21` (stereo not drawn) [Compound 113, 1-cyclopropyl-S-[4-deuterio-1-(2-fluoroprop-2-enoyl)-2,3-dihydroquinolin-4-yl]-7-[[1-(2-hydroxyethyl)pyrazol-4-yl]amino]-4H-pyrimido[4,5-d]pyrimidin-2-one], the GI50 was < 100 nM in assay [1] (Table 6, read-out: L858R BaF3) and 100 to 500 nM in assay [2] (Table 6).

As for `C=C(C)C(=O)N1CC[C@H](N2Cc3cnc(Nc4ccc(N5CCN(C)CC5)cc4)nc3N(C)C2=O)c2ccccc21` [Compound 090], the GI50 in assay [1] (Table 6, read-out: L858R BaF3) fell in the range of 500 to 2500 nM; in assay [2] (Table 6), 500 to 2500 nM.

Regarding `CN1CCN(c2ccc(Nc3ncc4c(n3)N(C)C(=O)N([C@H]3CCN(C(=O)CC#N)c5ccccc53)C4)cc2)CC1` [Compound 096], the GI50 is ≥ 2500 nM in assay [1] (Table 6, read-out: L858R BaF3) and ≥ 2500 nM in assay [2] (Table 6).

Take `C=CC(=O)N1CCC(N2Cc3cnc(Nc4ccc(N5CCN(C)CC5)c(C(F)(F)F)c4)nc3N(C)C2=O)c2ccccc21` (stereo not shown) [Compound 071]: the GI50 in assay [1] (Table 6, read-out: L858R BaF3) was < 100 nM; in assay [2] (Table 6), < 100 nM.

Consider `C=CC(=O)N1CCC(N2Cc3cnc(Nc4ccc(CN5CCN(C)CC5)c(Cl)c4)nc3N(C)C2=O)c2ccccc21` (stereo not shown) [Compound 088], for which the GI50 was < 100 nM in assay [1] (Table 6, read-out: L858R BaF3) and < 100 nM in assay [2] (Table 6).

Regarding `C=CC(=O)N1CCC(N2Cc3cnc(Nc4ccc(CN5CCN(C)CC5)cc4)nc3N(C)C2=O)c2ccccc21` (stereo not shown) [Compound 078], the GI50 in assay [1] (Table 6, read-out: L858R BaF3) is < 100 nM; in assay [2] (Table 6), < 100 nM.

As for `C=C(F)C(=O)N1CC[C@H](N2Cc3cnc(Nc4cnn(CCO)c4)nc3N(CC(F)F)C2=O)c2ccccc21` [Compound 110, 1-(2,2-difluoroethyl)-S-[(4S)-1-(2-fluoroprop-2-enoyl)-3,4-dihydro-2H-quinolin-4-yl]-7-[[1-(2-hydroxyethyl)pyrazol-4-yl]amino]-4H-pyrimido[4,5-d]pyrimidin-2-one], the GI50 in assay [1] (Table 6, read-out: L858R BaF3) is < 100 nM; in assay [2] (Table 6), < 100 nM.

As to `C=CC(=O)N1CCC(N2Cc3cnc(Nc4ccc(N5CCN(C)CC5)cc4OC(F)(F)F)nc3N(C)C2=O)c2ccccc21` (stereo not shown) [Compound 087], the GI50 was < 100 nM in assay [1] (Table 6, read-out: L858R BaF3) and < 100 nM in assay [2] (Table 6).

On to `C=CC(=O)Nc1c(F)cccc1CN1Cc2cnc(Nc3ccc(N4CCN(C)CC4)cc3)nc2N(C)C1=O` [Compound 019], for which the GI50 lay in the range of 100 to 500 nM in assay [1] (Table 5, read-out: L858R BaF3) and 500 to 2500 nM in assay [2] (Table 5).

With `C=CC(=O)N1CCC(N2Cc3cnc(Nc4ccc(N(C)CCN(C)C)cc4)nc3N(C)C2=O)c2ccccc21` (stereo not shown) [Compound 075], the GI50 in assay [1] (Table 6, read-out: L858R BaF3) is < 100 nM; in assay [2] (Table 6), < 100 nM.

Turning to `C=CC(=O)N1CCC(N2Cc3cnc(Nc4ccc(N5CCN(C)CC5)cn4)cc3N(C)C2=O)c2ccccc21` (stereo not drawn) [Compound 086, 1-methyl-7-[[5-(4-methylpiperazin-1-yl)-2-pyridyl]amino]-S-(1-prop-2-enoyl-3,4-dihydro-2H-quinolin-4-yl)-4Hpyrido[4,3-d]pyrimidin-2-one], the GI50 is < 100 nM in assay [1] (Table 6, read-out: L858R BaF3) and < 100 nM in assay [2] (Table 6).

In the case of `C=CC(=O)Nc1cccc(CN2Cc3cnc(Nc4ccc(N5CCN(C)CC5)cc4)nc3N(C)C2=O)c1` [Compound 036], the GI50 is 500 to 2500 nM in assay [1] (Table 5, read-out: L858R BaF3) and ≥ 2500 nM in assay [2] (Table 5).

For `C=C(F)C(=O)N1CC[C@H](N2Cc3cnc(Nc4ccc5c(c4)CCN(C)C5)nc3N(C)C2=O)c2ccccc21` [Compound 098], the GI50 in assay [1] (Table 6, read-out: L858R BaF3) is < 100 nM; in assay [2] (Table 6) it was < 100 nM.
